In data set [1] the target is T1, human 5HT7A-HEK membranes (Homo sapiens, UniProt P34969).
T1 construct: expressed in transfected cells; host or cells: HEK cells (membranes)
The data set can be described thus: 5-HT7 binding assay ([3H]LSD displacement). Conditions: Cheng-Prusoff. The protocol:
Solutions of test compounds were a 10 mM stock in dimethyl sulfoxide (DMSO) and then further diluted 1:200 in assay buffer [50 mM tris(hydroxymethyl)aminomethane (TRIS), pH 7.5, 10 mM MgCl2, 0.5 mM ethylenediaminetetraacetic acid (EDTA)] to 50 µM (0.5% DMSO). Ten dilutions of the test compound in 0.5% DMSO/assay buffer were prepared in a twofold serial dilution to yield final compound concentrations ranging from 10 µM to 19.5 nM in the assay. In a 96-well polypropylene plate, 50 µL of assay buffer was added to all wells, and then 50 µL of 0.5% DMSO/assay buffer or 50 µM chlorpromazine or serial dilutions of test compounds were added to selected wells. To all wells, 100 µL of 0.2 mg/mL human 5HT7A-HEK membranes and 50 µL of 5 nM [^3H]lysergic acid diethylamide (LSD) in assay buffer were added. Reactions were incubated at room temperature for 1.5 h and harvested by rapid filtration onto 0.3% polyethyleneimine-treated GF/B filter plates using a Brandel harvester. […] Filter plates were dried overnight, scintillant was added, and the radioactivity retained on the filters was counted on a TopCount scintillation counter (PerkinElmer). Half maximal inhibitory concentration (IC50) and inhibitory constant (Ki) of test compounds were calculated using GraphPad’s Prism 5 nonlinear sigmoidal curve-fitting program. […] Ki values were calculated using the Cheng-Prusoff equation.

Data set [2] concerns the target T2, h5-HT7D expressed in U2OS cells (Homo sapiens, UniProt P34969).
T2 construct: host or cells: U2OS
Briefly: 5-HT7 functional assay (cAMP Hunter eXpress GPCR luminescence assay). In kind it is cell-based. The following applies: antagonist, cAMP production stimulated by 150 nM 5-HT (EC80), Cheng-Prusoff. The procedure: The potencies of MC-170073, […], and MC-230079 as 5-HT7 antagonists were determined using the cAMP Hunter eXpress GPCR luminescence assay (DiscoveRx, 95-0163E3) and the manufacturer’s protocol. Cryopreserved U2OS cells expressing h5-HT7D were seeded into 96-well white-walled clear bottom tissue culture-treated plates (31,250 cells/well) and were allowed to recover for 16 h at 37°C in a humidified incubator with 5% CO2. The media was aspirated and replaced with 30-µL cell assay buffer (CAB). Cells were preincubated at 37°C for 15 min with 7.5 µL of 6× final concentration of 5 to 10 concentrations in triplicate of test compounds in CAB. Cells were then stimulated for 30 min at 37°C with 7.5 µL of 900 nM of the full agonist 5-HT in cell assay buffer (final concentration 150 nM; an EC80). cAMP levels/well were determined at room temperature by adding 15 µL of cAMP antibody and 60 µL of cAMP working detection solution, followed by the addition of 60 µL of solution A after 1 h incubation. Luminescence was read 16 h later with an EnVision multilabel plate reader. The IC50 of test compounds was calculated using GraphPad’s Prism 5 (GraphPad Software, La Jolla, CA) nonlinear curve-fitting program. The equilibrium dissociation constant for the competitive antagonists (KB) values was determined using the Cheng-Prusoff equation.

Data set [3] concerns the target 5-HT1A, 5-HT1B, 5-HT1D, 5-HT1E, 5-HT2A, 5-HT2B, 5-HT2C, 5-HT3, 5-HT4, 5-HT5A, and 5-HT6. Briefly: Off-target assessment at other 5-HT receptors (PDSP). Format: binding. The following applies: 1B, 1D, 1E, 2A, 2B, 2C, 3, 4, 5A, 6. The protocol:
In vitro assessments of MC-170073, MC-20078, and MC-230079 activity at the following targets were determined using the assay systems available through the Psychoactive Drug Screening Program (PDSP). Detailed protocols for each assay are available at https://pdsp.unc.edu/pdspweb/?site=assays. Receptors 5-HT1A, 5-HT1B, 5-HT1D, 5-HT1E, 5-HT2A, 5-HT2B, 5-HT2C, 5-HT3, 5-HT5A, 5-HT6, 5-HT7, α1A, α1B, α1D, α2A, α2B, α2C, benzodiazepine, β1, β2, β3, GABA-A, H1, H2, H3, H4, M1, M2, M3, M4, M5, δ-opioid, κ-opioid, and µ-opioid and transporters dopamine, norepinephrine, and serotonin were evaluated.

In data set [4] the target is human cytochrome P450 3A4 (Homo sapiens, UniProt P08684). The data set can be described thus: Cytochrome P450 inhibition assay, 3A4 (testosterone substrate, LC-MS/MS). The following applies: expressed enzyme, read-out: IC50 CYP3A4. In kind it is in vitro ADME. The procedure:
(§1) Compounds were assessed for their ability to inhibit human cytochrome P450 3A4 using testosterone as a substrate and LC-MS/MS analysis, whereas the 2D6 and 2C9 assays used fluorescent substrates and EnVision plate reader analysis. Expressed enzymes were used to minimize nonspecific binding and membrane partitioning issues ([15]).

The target of the next data set is CYP2D6 (Homo sapiens, UniProt P10635). The data set can be described thus: Cytochrome P450 inhibition assay, 2D6 (fluorescent substrate). Conditions: expressed enzyme. Format: in vitro ADME. The protocol: as §1
CYP2D6, sequence (P10635 whole entry): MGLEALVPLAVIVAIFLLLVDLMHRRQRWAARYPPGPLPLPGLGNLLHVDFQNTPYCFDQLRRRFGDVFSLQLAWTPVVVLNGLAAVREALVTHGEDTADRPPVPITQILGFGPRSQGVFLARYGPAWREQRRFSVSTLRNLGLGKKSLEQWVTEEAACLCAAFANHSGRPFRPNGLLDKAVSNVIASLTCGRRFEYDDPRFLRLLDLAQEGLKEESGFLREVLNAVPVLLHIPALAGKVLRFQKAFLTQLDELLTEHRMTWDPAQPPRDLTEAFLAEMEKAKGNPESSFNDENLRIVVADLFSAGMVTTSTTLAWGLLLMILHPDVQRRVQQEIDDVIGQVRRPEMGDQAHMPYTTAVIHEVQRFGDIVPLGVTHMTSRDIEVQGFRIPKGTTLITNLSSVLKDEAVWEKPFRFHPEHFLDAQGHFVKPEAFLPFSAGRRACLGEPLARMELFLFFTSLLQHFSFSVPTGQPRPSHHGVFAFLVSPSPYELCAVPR
A short description of data set [5]: Aqueous solubility (pH 7.4) assay, Millipore MultiScreen filter system. Format: physicochemical. Conditions: read-out: Sol (aqueous solubility). The protocol: Compounds were assessed for their solubility at pH 7.4 using the commercially available Millipore MultiScreen Solubility filter system (Millipore, Billerica, MA). Analysis was performed by liquid chromatography-tandem mass spectrometry (LC-MS/MS).

Data set [6] can be described thus: Microsomal stability assay, human liver microsomes. Conditions: 37°C, NADPH regenerating system, read-out: T1/2 HLM. Format: in vitro ADME. The procedure: Test compounds were assessed for microsomal stability by incubating at 37°C in the presence of mouse or human liver microsomes and an NADPH regenerating system as described by Yang et al. ([16]). Microsomal protein content was adjusted to ensure accurate rates of substrate consumption. Analysis was performed by LC-MS/MS analysis.
Background: Liver microsomes are a subcellular fraction often used to study metabolism.

Data set [7] in a line: Administration of antagonist in the absence of DSS. Format: in vivo, mice. The following applies: Supplemental Fig. S2.
Setting [8] is: pH 7.4, aqueous buffer, kinetic from dmso stock.

SMILES strings stand for the structures. ≈ marks a conversion by molar mass, not a printed value. Read-outs that look alike come from different tables or passages of the source.

What is called Ki is the equilibrium dissociation constant of an inhibitor or competing ligand from its target. Higher therefore signals weaker binding. The Kb is the equilibrium dissociation constant of an antagonist, usually derived from a functional assay. One may read the IC50 as the concentration needed to halve the response being measured. In general, solubility refers to the concentration that dissolves in the medium under given conditions.

T2 sequence (P34969 whole entry): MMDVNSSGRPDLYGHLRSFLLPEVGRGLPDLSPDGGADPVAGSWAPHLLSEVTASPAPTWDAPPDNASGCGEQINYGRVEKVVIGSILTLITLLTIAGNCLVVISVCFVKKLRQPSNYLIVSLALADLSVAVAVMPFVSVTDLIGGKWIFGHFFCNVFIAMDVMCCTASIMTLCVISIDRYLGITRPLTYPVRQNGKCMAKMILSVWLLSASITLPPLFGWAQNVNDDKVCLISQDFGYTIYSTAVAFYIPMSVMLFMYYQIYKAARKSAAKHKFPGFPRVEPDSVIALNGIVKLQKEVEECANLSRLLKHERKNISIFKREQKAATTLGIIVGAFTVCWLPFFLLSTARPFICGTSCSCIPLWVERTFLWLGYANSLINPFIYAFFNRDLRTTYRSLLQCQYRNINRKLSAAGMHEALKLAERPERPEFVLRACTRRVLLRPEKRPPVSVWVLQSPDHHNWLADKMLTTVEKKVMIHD
human cytochrome P450 3A4, sequence (P08684 whole entry): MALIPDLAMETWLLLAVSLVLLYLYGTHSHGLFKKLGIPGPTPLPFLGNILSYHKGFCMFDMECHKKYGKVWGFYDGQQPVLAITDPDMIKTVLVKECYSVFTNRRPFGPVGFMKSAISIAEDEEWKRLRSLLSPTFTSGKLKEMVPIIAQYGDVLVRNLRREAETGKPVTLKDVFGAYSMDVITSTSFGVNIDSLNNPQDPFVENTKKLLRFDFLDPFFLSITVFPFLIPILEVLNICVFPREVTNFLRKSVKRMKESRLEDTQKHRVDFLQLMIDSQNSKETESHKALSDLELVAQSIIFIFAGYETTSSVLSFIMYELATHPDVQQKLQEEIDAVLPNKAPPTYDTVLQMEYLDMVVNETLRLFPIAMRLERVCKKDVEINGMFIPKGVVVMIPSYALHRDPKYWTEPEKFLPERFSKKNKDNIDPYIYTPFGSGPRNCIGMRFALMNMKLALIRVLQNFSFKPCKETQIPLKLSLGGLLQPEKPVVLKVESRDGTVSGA
T1 sequence (P34969 1-445 isoform P34969-2): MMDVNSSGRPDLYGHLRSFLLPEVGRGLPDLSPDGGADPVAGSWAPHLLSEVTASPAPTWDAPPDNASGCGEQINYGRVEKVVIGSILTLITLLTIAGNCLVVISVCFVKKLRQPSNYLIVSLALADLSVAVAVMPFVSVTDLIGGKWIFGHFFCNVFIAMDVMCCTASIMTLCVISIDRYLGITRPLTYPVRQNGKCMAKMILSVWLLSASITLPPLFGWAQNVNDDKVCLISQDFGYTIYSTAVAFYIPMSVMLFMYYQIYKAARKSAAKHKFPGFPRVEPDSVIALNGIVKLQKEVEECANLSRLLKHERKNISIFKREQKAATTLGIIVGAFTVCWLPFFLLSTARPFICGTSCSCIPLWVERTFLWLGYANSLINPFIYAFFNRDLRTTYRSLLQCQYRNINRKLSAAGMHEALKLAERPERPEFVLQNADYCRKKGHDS

On to `CCC1(CC)CC(CCN2CCN(c3ccc(O)cc3)CC2)OC1=O` (centres unmarked) [MC-170073], for which the results for the Ki in data set [1] and in data set [3] were 89 nM and above 10000 nM, respectively. The molecule also came in with a Kb in data set [2] of 18 nM. The IC50 (in data set [4]; at CYP2D6) was above 10000 nM in each case. The solubility in data set [5] (setting [8]) stood at 200 µM (≈ 69.3 µg/mL); in data set [5], 168 µM (≈ 58.2 µg/mL). Besides, the half-life in data set [6] is above 1 h. Also, the “effect on body weight change, histology, or proinflammatory cytokine production” value in data set [7] was “no significant effect”.

`CCC1(CC)C[C@@H](CCN2CCN(c3ccc(O)cc3)CC2)OC1=O` [MC-230078]: the inhibition constant (Ki) in data set [1] is 106 nM; in data set [3], above 10000 nM. Besides, the Kb in data set [2] is 21 nM. Also, the IC50 was 9460 nM in data set [4] and above 10000 nM against CYP2D6. The solubility in data set [5] (setting [8]) was 200 µM (≈ 69.3 µg/mL). In data set [6], the half-life was determined as 1 h. Also, the “effect on body weight change, histology, or proinflammatory cytokine production” value in data set [7] is “no significant effect”.

The values are drawn from article PMC11550998, “Novel 5-HT7 receptor antagonists modulate intestinal immune responses and reduce severity of colitis” (American Journal of Physiology - Gastrointestinal and Liver …, 2024).
